Laboratory results: US11191742B2, “Methods of treating neurodegenerative disorders in a particular population” (ALZHEON, INC., priority 2015, dated 2021)

Key:
Format in all cases: in vivo, human
[1] = Safety in Phase 3 tramiprosate studies
Description: In some embodiments, the subject is determined to have moderate AD when the subject has a baseline MMSE score in the range of 16-19. In some embodiments, the subject is determined to have mild AD when the subject has a baseline MMSE score in the range of 20-26. […] Safety data from Phase 3 tramiprosate studies support bridging to the ALZ-801 safety database, based on bioequivalence. The disclosures in provisional application Ser. No. 62/216,404, filed Sep. 10, 2015, 62/290,287, filed Feb. 2, 2016, and 62/365,809, filed Jul. 22, 2016 are incorporated herein for all purposes and particularly regarding dosages and formulations.

[2] = system: APOE4 heterozygous patients with Alzheimer's disease; assay: Phase 3 trials of tramiprosate, CDR-SB score, heterozygous APOE4+ patients; settings: Heterozygous APOE4+ patients ≤85 years
Description: (§1) The delta value in all of these tables is calculated by measuring the increase in score over baseline for each patient in a treatment group and obtaining the mean increase for such group and then subtracting that value from the mean increase in score over baseline for all patients in the placebo group. Thus, a positive delta value in these tables represents an improvement over the placebo group. Phase 3 human clinical trials of tramiprosate to treat Alzheimer's disease at doses of 100 mg BID and 150 mg BID for up to 78 weeks were run in both North America and Europe (1691 total patients enrolled). Placebos in both trials were treatment with donepezil either alone or in combination with memantine. ADAS-Cog scores and CDR-SB scores were obtained every 13 weeks for patients that remained in the trial. The patients were genotyped for APOE4 and the severity of their disease was measured using MMSE prior to the beginning of treatment. The data from both trials were merged for certain statistical analyses. […] We then performed additional subgroup analysis, subgrouping by APOE4 genotype/allele status (APOE4 heterozygous or APOE4 homozygous) and by disease severity (mild vs moderate) to determine if the number of c alleles and/or the severity of disease predicted a better outcome of tramiprosate therapy. […] In Table 4, *control treatment is donepezil either alone or in combination with memantine. Positive delta values quantitate the amount by which average increase in CDR-SB Score points above baseline for the control group exceeded the average increase in CDR-SB Score points above baseline for the treatment group.

[3] = system: APOE4/4 homozygous patients with Alzheimer's disease; assay: Phase 3 trials of tramiprosate, ADAS-Cog and CDR-SB by baseline MMSE, APOE4/4 homozygous subjects; settings: 150 mg BID
Description: Analysis of the efficacy or tramiprosate in APOE4/4 homozygous subjects based on baseline MMSE was performed to evaluate for differences in drug response between Mild and Moderate patients. […] analyses were performed on the following baseline MMSE categories: Mild-to-Moderate AD population (baseline MMSE 16-26 inclusive), Mild AD population (baseline MMSE 20-26 inclusive), and the More Mild AD population (baseline MMSE 22-26 inclusive). The data is shown below in FIG. 7, panels A and B.

[4] = system: APOE4+ patients with Alzheimer's disease; assay: Phase 3 trials of tramiprosate, CDR-SB score, all APOE4+ patients; settings: for CDR-SB Score Change over Standard of Care (Δ improvement vs control): All APOE4+ patients ≤85 years
Description: as §1, with “2,” for “4,”

[5] = Mild (MMSE 20-26), 100 mg BID, 52 weeks
[6] = Mild (MMSE 20-26), 100 mg BID, 65 weeks
[7] = Mild (MMSE 20-26), 100 mg BID, 78 weeks
[8] = Mild (MMSE 20-26), 150 mg BID, 52 weeks
[9] = Mild (MMSE 20-26), 150 mg BID, 65 weeks
[10] = Mild (MMSE 20-26), 150 mg BID, 78 weeks
[11] = Mild-to-Moderate (MMSE 16-26), 100 mg BID, 52 weeks
[12] = Mild-to-Moderate (MMSE 16-26), 100 mg BID, 65 weeks
[13] = Mild-to-Moderate (MMSE 16-26), 100 mg BID, 78 weeks
[14] = Mild-to-Moderate (MMSE 16-26), 150 mg BID, 52 weeks
[15] = Mild-to-Moderate (MMSE 16-26), 150 mg BID, 65 weeks
[16] = Mild-to-Moderate (MMSE 16-26), 150 mg BID, 78 weeks
[17] = Moderate (MMSE 16-19), 100 mg BID, 52 weeks
[18] = Moderate (MMSE 16-19), 100 mg BID, 65 weeks
[19] = Moderate (MMSE 16-19), 100 mg BID, 78 weeks
[20] = Moderate (MMSE 16-19), 150 mg BID, 52 weeks
[21] = Moderate (MMSE 16-19), 150 mg BID, 65 weeks
[22] = Moderate (MMSE 16-19), 150 mg BID, 78 weeks

SMILES: NCCCS(=O)(=O)O [Tramiprosate, 3-amino-1-propanesulfonic acid]
- Most common adverse event [1]: nausea
- Safety profile [1]: favorable safety profile
- CDR-SB Score Change over Standard of Care (Δ improvement vs control) [2, 5]: 0.2 points
- CDR-SB Score Change over Standard of Care (Δ improvement vs control) [2, 6]: 0.3 points
- CDR-SB Score Change over Standard of Care (Δ improvement vs control) [2, 7]: 0.3 points
- CDR-SB Score Change over Standard of Care (Δ improvement vs control) [2, 8]: 0.1 points
- CDR-SB Score Change over Standard of Care (Δ improvement vs control) [2, 9]: −0.1 points
- CDR-SB Score Change over Standard of Care (Δ improvement vs control) [2, 10]: 0 points
- CDR-SB Score Change over Standard of Care (Δ improvement vs control) [2, 11]: 0.5 points
- CDR-SB Score Change over Standard of Care (Δ improvement vs control) [2, 12]: 0.5 points
- CDR-SB Score Change over Standard of Care (Δ improvement vs control) [2, 13]: 0.6 points
- CDR-SB Score Change over Standard of Care (Δ improvement vs control) [2, 14]: 0.4 points
- CDR-SB Score Change over Standard of Care (Δ improvement vs control) [2, 15]: 0.3 points
- CDR-SB Score Change over Standard of Care (Δ improvement vs control) [2, 16]: 0.50 points
- CDR-SB Score Change over Standard of Care (Δ improvement vs control) [2, 17]: 1.00 points
- CDR-SB Score Change over Standard of Care (Δ improvement vs control) [2, 18]: 1.00 points
- CDR-SB Score Change over Standard of Care (Δ improvement vs control) [2, 19]: 1.00 points
- CDR-SB Score Change over Standard of Care (Δ improvement vs control) [2, 20]: 1.00 points
- CDR-SB Score Change over Standard of Care (Δ improvement vs control) [2, 21]: 1.1 points
- CDR-SB Score Change over Standard of Care (Δ improvement vs control) [2, 22]: 1.5 points
- Improvement compared with patients with lower MMSE at baseline ([3]; Mild AD (baseline MMSE ≥20) or More Mild AD (baseline MMSE ≥22)): higher improvement
- Efficacy and cognitive benefit by baseline MMSE ([3]; baseline MMSE ≥22 (More Mild), 78 weeks): highest efficacy and a sustained cognitive benefit
- Effect on CDR-SB compared with the placebo ([4]; APOE4+ subgroup, both 100 mg and 150 mg treatment groups): statistically significant effect
- CDR-SB Score Change over Standard of Care (Δ improvement vs control) [4, 5]: 0.14 points
- CDR-SB Score Change over Standard of Care (Δ improvement vs control) [4, 6]: 0.34 points
- CDR-SB Score Change over Standard of Care (Δ improvement vs control) [4, 7]: 0.35 points
- CDR-SB Score Change over Standard of Care (Δ improvement vs control) [4, 8]: 0.16 points
- CDR-SB Score Change over Standard of Care (Δ improvement vs control) [4, 9]: 0.2 points
- CDR-SB Score Change over Standard of Care (Δ improvement vs control) [4, 10]: 0.18 points
- CDR-SB Score Change over Standard of Care (Δ improvement vs control) [4, 11]: 0.26 points
- CDR-SB Score Change over Standard of Care (Δ improvement vs control) [4, 12]: 0.5 points
- CDR-SB Score Change over Standard of Care (Δ improvement vs control) [4, 13]: 0.55 points
- CDR-SB Score Change over Standard of Care (Δ improvement vs control) [4, 14]: 0.44 points
- CDR-SB Score Change over Standard of Care (Δ improvement vs control) [4, 15]: 0.5 points
- CDR-SB Score Change over Standard of Care (Δ improvement vs control) [4, 16]: 0.6 points
- CDR-SB Score Change over Standard of Care (Δ improvement vs control) [4, 17]: 0.56 points
- CDR-SB Score Change over Standard of Care (Δ improvement vs control) [4, 18]: 0.83 points
- CDR-SB Score Change over Standard of Care (Δ improvement vs control) [4, 19]: 0.98 points
- CDR-SB Score Change over Standard of Care (Δ improvement vs control) [4, 20]: 1.00 points
- CDR-SB Score Change over Standard of Care (Δ improvement vs control) [4, 21]: 1.12 points
- CDR-SB Score Change over Standard of Care (Δ improvement vs control) [4, 22]: 1.53 points
